Results on 14 molecules are retold here after PMC9850727, “Benzoxazolone-5-Urea Derivatives as Human Soluble Epoxide Hydrolase (sEH) Inhibitors” (ACS Omega, 2023).

One data set addresses T1, human recombinant sEH (Homo sapiens, UniProt P34913).
T1 construct: made in house; host or cells: Sf9 cells infected with recombinant baculovirus (from Dr. Bruce Hammock, UC Davis)
T1 sequence (P34913 1-555): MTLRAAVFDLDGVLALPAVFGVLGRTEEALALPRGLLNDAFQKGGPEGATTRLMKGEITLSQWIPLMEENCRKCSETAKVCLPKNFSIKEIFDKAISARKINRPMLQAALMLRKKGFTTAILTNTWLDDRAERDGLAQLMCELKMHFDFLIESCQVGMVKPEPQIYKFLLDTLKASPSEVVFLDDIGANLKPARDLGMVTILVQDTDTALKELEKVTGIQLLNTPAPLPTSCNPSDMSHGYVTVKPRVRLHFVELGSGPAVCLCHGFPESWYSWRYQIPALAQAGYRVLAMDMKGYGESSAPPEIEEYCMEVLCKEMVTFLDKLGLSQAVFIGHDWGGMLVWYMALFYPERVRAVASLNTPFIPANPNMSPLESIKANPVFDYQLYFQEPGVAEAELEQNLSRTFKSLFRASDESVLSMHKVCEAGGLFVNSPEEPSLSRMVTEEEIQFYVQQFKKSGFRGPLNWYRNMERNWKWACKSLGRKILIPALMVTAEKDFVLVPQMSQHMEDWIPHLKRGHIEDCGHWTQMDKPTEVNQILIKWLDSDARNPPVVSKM
In words: Cell-free sEH activity assay (fluorescence-based, PHOME substrate). As to conditions: for sEH activity % of control at 1 μM / sEH activity % of control at 10 μM: residual activity; for inhibition at 10 µM: inhibition as stated in text. In kind it is biochemical. The source says: Inspired by the reported crystallographic screening studies,[12],[13],[15] a series of aryl amide (12, 15–21) or urea (31–39) derivatives with a benzoxazolone head group were synthesized and assessed for inhibition of human recombinant sEH in a cell-free activity assay[27] (Tables 1 and 2). […] Consequently, compounds in which the amide group is attached to the benzoxazolone ring through NH could outperform their direct reversed analogues by more favorable interactions in the central pocket of sEH. In addition, simple methylation of the benzoxazolone NH in 17–18 engendered noticeable differences in sEH inhibition relative to the unmethylated counterparts 15–16, implying that a free NH with H-bond donor property at this location is also important for the observed potency. Subsequently, the positioning of the amide group at the 5-position of the benzoxazolone ring also retained the inhibitory activity.
Human recombinant sEH was expressed and purified as published before.[31] Briefly, Sf9 cells were infected with a recombinant baculovirus (obtained from Dr. Bruce Hammock, University of California, Davis, CA). Following 72 h of transfection, the cells were centrifuged and then sonicated (3 × 10 s at 4 °C) in lysis buffer comprising glycerol (10%), NaHPO4 (50 mM, pH 8), leupeptin (10 μg/mL), NaCl (300 mM), phenylmethanesulfonyl fluoride (1 mM), EDTA (1 mM), and soybean trypsin inhibitor (60 μg/mL). After centrifugation at 100,000g (60 min, 4 °C), the obtained supernatants were subjected to a benzylthio-sepharose-affinity chromatography and eluted with 4-fluorochalcone oxide in PBS containing 1 mM DTT and 1 mM EDTA for purification of sEH. The enzyme was dialyzed and concentrated (Millipore Amicon-Ultra-15 centrifugal filter), and the solution was further assayed for total protein content by a protein detection kit (Bio-Rad Laboratories, Munich, Germany). The epoxide hydrolase activity was measured using a fluorescence-based assay, as reported before.[27] In brief, sEH was diluted in Tris buffer (25 mM, pH 7) containing BSA (0.1 mg/mL) to a suitable enzyme concentration and pretreated with test compounds or 0.1% DMSO as vehicle for 10 min at room temperature. To start the reaction, 50 μM of the PHOME substrate (3-phenyl-cyano(6-methoxy-2-naphthalenyl)methyl ester-2-oxiraneacetic acid), a nonfluorescent compound that is enzymatically converted by sEH into fluorescent 6-methoxy-naphtaldehyde, was added at RT. The reaction was stopped by addition of ZnSO4 (200 mM) after 60 min, and fluorescence was measured (λem 465 nm, λex 330 nm) by employing a NOVOstar microplate reader (BMG LABTECH GmbH, Ortenberg, Germany). If required, the potential fluorescence of test compounds was subtracted from the readout.

Setting [1] is: mean ± SEM, n = 3, benzoxazolone-amides (Table 1).
The mark [2] stands for this setting: cell-free assay, benzoxazolone-amides (Table 1).
Setting [3] is: mean ± SEM, n = 3, benzoxazolone-ureas (Table 2).
[4] abbreviates: cell-free assay, mean ± SEM, n = 3, benzoxazolone-ureas (Table 2).

On to `O=C(Nc1ccc(OCc2ccccc2)cc1)c1ccc2[nH]c(=O)oc2c1` [Compound 12, N-[4-(Benzyloxy)phenyl]-2-oxo-2,3-dihydro-1,3-benzoxazole-6-carboxamide], for which the melting point is more than 300 °C. In addition, at human recombinant sEH (setting [1]), the “sEH activity % of control at 1 μM” value was 91.0 ± 6.1 % of control and the “sEH activity % of control at 10 μM” value is reported as 84.4 ± 3.8 % of control. Also, at human recombinant sEH (cell-free assay), the “sEH inhibition (in words)” value was “devoid of sEH inhibition”. The IC50 on human recombinant sEH (setting [2]) is more than 10000 nM.

Regarding `O=C(Nc1ccc2[nH]c(=O)oc2c1)c1ccc(OCc2ccccc2)cc1` [Compound 15, 4-(Benzyloxy)-N-(2-oxo-2,3-dihydro-1,3-benzoxazol-6-yl)benzamide], the melting point lay within 256.6 to 259 °C. Also, on human recombinant sEH (setting [1]), the “sEH activity % of control at 1 μM” value is recorded as 67.8 ± 10.8 % of control and the “sEH activity % of control at 10 μM” value was 28.9 ± 8.1 % of control. In addition, at human recombinant sEH, the inhibition at 10 µM turned out to be 70%. Besides, at human recombinant sEH (setting [2]), the IC50 was less than 10000 nM.

`O=C(Nc1ccc2[nH]c(=O)oc2c1)c1ccc(Oc2ccccc2)cc1` [Compound 16, N-(2-Oxo-2,3-dihydro-1,3-benzoxazol-6-yl)-4-phenoxybenzamide]: the melting point was 231.8 to 233 °C. Moreover, on human recombinant sEH (setting [1]), the “sEH activity % of control at 1 μM” value was 49.8 ± 6.3 % of control and the “sEH activity % of control at 10 μM” value was 15.2 ± 5.9 % of control. Moreover, on human recombinant sEH, the inhibition at 10 µM is 85%. The IC50 at human recombinant sEH (setting [2]) is approximately 1000 nM.

For `Cn1c(=O)oc2cc(NC(=O)c3ccc(OCc4ccccc4)cc3)ccc21` [Compound 17, 4-(Benzyloxy)-N-(3-methyl-2-oxo-2,3-dihydro-1,3-benzoxazol-6-yl)benzamide], the melting point lay within 251.8 to 253.7 °C. On human recombinant sEH (setting [1]), the “sEH activity % of control at 1 μM” value is 105.8 ± 15.9 % of control and the “sEH activity % of control at 10 μM” value was 115.1 ± 4.9 % of control. The IC50 at human recombinant sEH (setting [2]) is more than 10000 nM.

The molecule `Cn1c(=O)oc2cc(NC(=O)c3ccc(Oc4ccccc4)cc3)ccc21` [Compound 18, N-(3-Methyl-2-oxo-2,3-dihydro-1,3-benzoxazol-6-yl)-4-phenoxybenzamide] had a melting point of 229.1 to 231.1 °C. Besides, at human recombinant sEH (setting [1]), the “sEH activity % of control at 1 μM” value is recorded as 83.7 ± 9.8 % of control and the “sEH activity % of control at 10 μM” value is listed as 91.5 ± 2.8 % of control. Besides, the IC50 at human recombinant sEH (setting [2]) is more than 10000 nM.

The molecule `O=C(Nc1ccc2oc(=O)[nH]c2c1)c1ccc(OCc2ccccc2)cc1` [Compound 20, 4-(Benzyloxy)-N-(2-oxo-2,3-dihydro-1,3-benzoxazol-5-yl)benzamide] had a melting point of 260.7 to 262.8 °C. Also, at human recombinant sEH (setting [1]), the “sEH activity % of control at 1 μM” value is given as 68.2 ± 6.6 % of control and the “sEH activity % of control at 10 μM” value is given as 30.0 ± 10.5 % of control. For the same molecule, the IC50 at human recombinant sEH (setting [2]) is less than 10000 nM.

`O=C(Nc1ccc2oc(=O)[nH]c2c1)c1ccc(Oc2ccccc2)cc1` [Compound 21, N-(2-Oxo-2,3-dihydro-1,3-benzoxazol-5-yl)-4-phenoxybenzamide] yielded a melting point of 231 to 233 °C. Moreover, on human recombinant sEH (setting [1]), the “sEH activity % of control at 1 μM” value is listed as 47.4 ± 7.1 % of control and the “sEH activity % of control at 10 μM” value is 14.4 ± 6.8 % of control. Moreover, the IC50 on human recombinant sEH (setting [2]) was approximately 1000 nM.

In the case of `O=C(NCc1ccccc1Cl)Nc1ccc2oc(=O)[nH]c2c1` [Compound 31, 1-[(2-Chlorophenyl)methyl]-3-(2-oxo-2,3-dihydro-1,3-benzoxazol-5-yl)urea], the melting point was 242.5 °C (dec.). Further, at human recombinant sEH (setting [3]), the “sEH activity % of control at 1 μM” value is listed as 3.1 ± 6.2 % of control and the “sEH activity % of control at 10 μM” value was 5.8 ± 6.2 % of control. For the same molecule, the IC50 on human recombinant sEH (setting [4]) stood at 9.9 ± 2.9 nM.

Regarding `O=C(NCc1ccccc1C(F)(F)F)Nc1ccc2oc(=O)[nH]c2c1` [Compound 32, 3-(2-Oxo-2,3-dihydro-1,3-benzoxazol-5-yl)-1-{[2-(trifluoromethyl)phenyl]methyl}urea], the melting point is 237.8 °C (dec.). Moreover, at human recombinant sEH (setting [3]), the “sEH activity % of control at 1 μM” value is 7.1 ± 5.8 % of control and the “sEH activity % of control at 10 μM” value was 4.7 ± 8.0 % of control. Moreover, the IC50 on human recombinant sEH (setting [4]) worked out at 2 ± 0.42 nM.

In the case of `O=C(NCc1cccc(Cl)c1)Nc1ccc2oc(=O)[nH]c2c1` [Compound 34, 1-[(3-Chlorophenyl)methyl]-3-(2-oxo-2,3-dihydro-1,3-benzoxazol-5-yl)urea], the melting point was 244.5 °C (dec.). Besides, on human recombinant sEH (setting [3]), the “sEH activity % of control at 1 μM” value is listed as 18.6 ± 5.1 % of control and the “sEH activity % of control at 10 μM” value is 7.5 ± 3.4 % of control. In addition, at human recombinant sEH (setting [4]), the IC50 turned out to be 80 ± 23 nM.

In the case of `O=C(NCc1ccc(F)cc1)Nc1ccc2oc(=O)[nH]c2c1` [Compound 35, 1-[(4-Fluorophenyl)methyl]-3-(2-oxo-2,3-dihydro-1,3-benzoxazol-5-yl)urea], the melting point was 249.3 °C (dec.). In addition, on human recombinant sEH (setting [3]), the “sEH activity % of control at 1 μM” value is given as 62.8 ± 3.3 % of control and the “sEH activity % of control at 10 μM” value is listed as 5.2 ± 3.6 % of control. Also, at human recombinant sEH (setting [4]), the half-inhibitory concentration (IC50) is 570 ± 15 nM.

On to `O=C(NCc1ccc(Cl)cc1)Nc1ccc2oc(=O)[nH]c2c1` [Compound 36, 1-[(4-Chlorophenyl)methyl]-3-(2-oxo-2,3-dihydro-1,3-benzoxazol-5-yl)urea], for which the melting point was 251 °C (dec.). Besides, at human recombinant sEH (setting [3]), the “sEH activity % of control at 1 μM” value is 18.6 ± 2.6 % of control and the “sEH activity % of control at 10 μM” value is on record as 1.9 ± 2.4 % of control. The IC50 at human recombinant sEH (setting [4]) was found to be 120 ± 20 nM.

Regarding `O=C(NCc1ccc(C(F)(F)F)cc1)Nc1ccc2oc(=O)[nH]c2c1` [Compound 37, 3-(2-Oxo-2,3-dihydro-1,3-benzoxazol-5-yl)-1-{[4-(trifluoromethyl)phenyl]methyl}urea], the melting point is 213.6 °C (dec.). For the same molecule, at human recombinant sEH (setting [3]), the “sEH activity % of control at 1 μM” value is 12.3 ± 2.5 % of control and the “sEH activity % of control at 10 μM” value is 1.1 ± 1.8 % of control. For the same molecule, at human recombinant sEH (setting [4]), the IC50 stood at 53 ± 8 nM.

On to `O=C(NCc1cccc(F)c1F)Nc1ccc2oc(=O)[nH]c2c1` [Compound 39, 1-[(2,3-Difluorophenyl)methyl]-3-(2-oxo-2,3-dihydro-1,3-benzoxazol-5-yl)urea], for which the melting point is 259.9 °C (dec.). Moreover, on human recombinant sEH (setting [3]), the “sEH activity % of control at 1 μM” value is 14.2 ± 2.7 % of control and the “sEH activity % of control at 10 μM” value was 0.8 ± 2.0 % of control. In addition, the IC50 on human recombinant sEH (setting [4]) is 33 ± 10 nM.
